Measurements taken from ChEMBL document CHEMBL4270670 (J Med Chem, 2018).

Key:
in vitro [1] = conditions: chicken, chicken embryo fibroblasts
in vitro [2] = conditions: dog, MDCK cells
Influenza B virus = conditions: mdck
Influenza A virus [3] = assay: microbe, parasite or virus in culture; conditions: A/Puerto Rico/8/1934(H1N1), MDCK, 48 h
Influenza A virus [4] = assay: microbe, parasite or virus in culture; conditions: MDCK, 48 h
Rattus norvegicus [5] = assay: Cmax in Sprague-Dawley rat at 20 mg/kg, po by LC-MS analysis; type: ADME, organism-based; parameters: dose 20 mg/kg, route oral; conditions: in vivo
[6] = Oral bioavailability in Sprague-Dawley rat at 20 mg/kg by LC-MS analysis; type: ADME, organism-based; conditions: in vivo
[7] = MRT (0 to infinity) in Sprague-Dawley rat at 20 mg/kg, po by LC-MS analysis; type: ADME, organism-based; conditions: in vivo
Rattus norvegicus [8] = organism: Rattus norvegicus; conditions: in vivo, po, 20 mg/kg
Rattus norvegicus [9] = assay: Half life in Sprague-Dawley rat at 20 mg/kg, po by LC-MS analysis; type: ADME, organism-based; conditions: in vivo
in vivo = conditions: Sprague-Dawley, rat, po, 20 mg/kg
Rattus norvegicus [10] = assay: Tmax in Sprague-Dawley rat at 20 mg/kg, po by LC-MS analysis; type: ADME, organism-based; conditions: in vivo

## CCC(CC)O[C@@H]1C=C(C(=O)O)C[C@H](NCc2ccc(-c3ccc4sccc4c3)cc2)[C@H]1NC(C)=O
In vitro [1]
  CC50 at 48 h: > 200 µM

## CCC(CC)O[C@@H]1C=C(C(=O)O)C[C@H](NCc2ccc(Sc3cccs3)cc2)[C@H]1NC(C)=O
In vitro [2]
  CC50 at 48 h: > 250 µM
Influenza B virus
  EC50: 8.5 µM
Influenza A virus [3]
  EC50: 0.04 µM
In vitro [1]
  CC50 at 48 h: > 200 µM
Influenza A virus [4]
  EC50: 79 µM

## CCC(CC)O[C@@H]1C=C(C(=O)O)C[C@H](NCc2ccc(OC(C)C)cc2)[C@H]1NC(C)=O
In vitro [1]
  CC50 at 48 h: > 200 µM

## CCC(CC)O[C@@H]1C=C(C(=O)O)C[C@H](NCc2cccc(-c3ccc(SC)cc3)c2)[C@H]1NC(C)=O
In vitro [1]
  CC50 at 48 h: > 200 µM

## CCC(CC)O[C@@H]1C=C(C(=O)O)C[C@H](NCc2ccc(Cc3ccccc3)cc2)[C@H]1NC(C)=O
In vitro [1]
  CC50 at 48 h: > 200 µM

## CCOC(=O)C1=C[C@@H](OC(CC)CC)[C@H](NC(C)=O)[C@@H](NCc2ccc(Sc3ccccc3)cc2)C1
Rattus norvegicus [5]
  Cmax: 445.6 µg/mL
[6]
  bioavailability: 7.1%
[7]
  MRT inf: 17.1 h
Rattus norvegicus [8]
  AUC: 1594.62 ng·h/mL
Rattus norvegicus [9]
  t1/2: 8.68 h
In vivo
  AUC(0-t): 1040 ng·h/mL
Rattus norvegicus [10]
  Tmax: 0.57 h

## CCC(CC)O[C@@H]1C=C(C(=O)O)C[C@H](NCc2cccc(SC(C)CC)c2)[C@H]1NC(C)=O (stereo partly drawn)
In vitro [1]
  CC50 at 48 h: > 200 µM

## CCC(CC)O[C@@H]1C=C(C(=O)O)C[C@H](NCc2cccc(OC)c2)[C@H]1NC(C)=O
In vitro [1]
  CC50 at 48 h: > 200 µM

## CCC(CC)O[C@@H]1C=C(C(=O)O)C[C@H](NCc2cccc(SC3CCCC3)c2)[C@H]1NC(C)=O
In vitro [1]
  CC50 at 48 h: > 200 µM

## CCC(CC)O[C@@H]1C=C(C(=O)O)C[C@H](NCc2ccc(Oc3ccccc3)cc2)[C@H]1NC(C)=O
In vitro [1]
  CC50 at 48 h: > 200 µM

## CCC(CC)O[C@@H]1C=C(C(=O)O)C[C@H](NCc2ccc(C(=O)c3ccccc3)cc2)[C@H]1NC(C)=O
In vitro [1]
  CC50 at 48 h: > 200 µM

## CCC(CC)O[C@@H]1C=C(C(=O)O)C[C@H](NCc2ccc(-c3cc4ccccc4s3)cc2)[C@H]1NC(C)=O
In vitro [2]
  CC50 at 48 h: > 250 µM
Influenza B virus
  EC50: > 100 µM
Influenza A virus [3]
  EC50: 7.2 µM
In vitro [1]
  CC50 at 48 h: > 200 µM
Influenza A virus [4]
  EC50: > 100 µM

## CCC(CC)Oc1ccc(CN[C@H]2CC(C(=O)O)=C[C@@H](OC(CC)CC)[C@@H]2NC(C)=O)cc1
In vitro [2]
  CC50 at 48 h: > 250 µM
Influenza B virus
  EC50: > 100 µM
Influenza A virus [3]
  EC50: 13 µM
In vitro [1]
  CC50 at 48 h: > 200 µM
Influenza A virus [4]
  EC50: > 100 µM

## CCc1ccc(CN[C@H]2CC(C(=O)O)=C[C@@H](OC(CC)CC)[C@@H]2NC(C)=O)cc1
In vitro [1]
  CC50 at 48 h: > 200 µM

## CCC(CC)O[C@@H]1C=C(C(=O)O)C[C@H](NCc2ccc(SC(C)CC)cc2)[C@H]1NC(C)=O (stereo partly drawn)
In vitro [1]
  CC50 at 48 h: > 200 µM
